In assay [1] the target is T1, pSTAT3 (pY705-STAT3) (Homo sapiens, UniProt P40763).
T1 construct: host or cells: cryopreserved PBMC
Nature of the assay: MSD-pSTAT-PBMC Assay (pSTAT3, IL-6 stimulated). The note with it: PBMC, compound 3 hrs, then 10 ng/mL IL-6 for 10 min; MSD pY705-STAT3; read-out: pSTAT3. The class given is cell-based. In a few lines:
(§1)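 Phospho-STAT levels captured on anti-STAT3 or anti-STAT6 plates and detected with anti-pY705 or anti-pY641 antibodies (MSD read-out). Cryopreserved human PBMCs received compound for 3 h before a 10 min pulse of IL-6 (10 ng/mL, STAT3) or IL-4 (1 ng/mL, STAT6). IC50 fitted after unstimulated-background subtraction and DMSO normalization.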

Assay [2] deals with T2, pSTAT6 (pY641-STAT6) (Homo sapiens, UniProt P42226).
T2 construct: host or cells: cryopreserved PBMC
T2 sequence (P42226 1-847): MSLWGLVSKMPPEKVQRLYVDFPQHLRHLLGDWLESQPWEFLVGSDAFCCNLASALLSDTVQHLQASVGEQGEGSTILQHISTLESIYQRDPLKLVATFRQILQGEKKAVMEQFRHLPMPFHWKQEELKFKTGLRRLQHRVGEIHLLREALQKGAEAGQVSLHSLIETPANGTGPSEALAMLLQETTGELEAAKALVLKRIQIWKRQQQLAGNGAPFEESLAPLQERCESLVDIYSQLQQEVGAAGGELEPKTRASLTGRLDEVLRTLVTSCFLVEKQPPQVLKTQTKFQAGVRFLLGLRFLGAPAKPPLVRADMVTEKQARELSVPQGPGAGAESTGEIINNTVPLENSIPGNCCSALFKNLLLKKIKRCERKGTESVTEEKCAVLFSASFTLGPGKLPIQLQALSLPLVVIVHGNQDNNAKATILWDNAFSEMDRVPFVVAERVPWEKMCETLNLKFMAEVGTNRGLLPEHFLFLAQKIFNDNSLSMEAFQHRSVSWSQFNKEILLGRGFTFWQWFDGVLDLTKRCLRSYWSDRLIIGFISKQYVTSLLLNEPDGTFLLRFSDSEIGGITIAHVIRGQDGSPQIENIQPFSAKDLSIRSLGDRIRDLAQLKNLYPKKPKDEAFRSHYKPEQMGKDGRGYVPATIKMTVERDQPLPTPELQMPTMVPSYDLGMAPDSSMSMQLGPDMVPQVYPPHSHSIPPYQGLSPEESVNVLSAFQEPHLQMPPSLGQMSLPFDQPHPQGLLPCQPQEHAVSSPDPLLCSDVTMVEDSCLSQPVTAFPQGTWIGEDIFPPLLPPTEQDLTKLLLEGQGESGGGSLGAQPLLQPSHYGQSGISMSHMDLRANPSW
The assay can be described thus: MSD-pSTAT-PBMC Assay (pSTAT6, IL-4 stimulated). In kind it is cell-based. The following applies: compound 3 hrs, then 1 ng/mL IL-4 for 10 min. In a few lines: as §1

The record followed here is US20250215030A1, “STAT MODULATORS AND USES THEREOF” (Recludix Pharma, Inc., priority 2022, published 2025).

Molecules are shown by their SMILES.

T1 sequence (P40763 whole entry): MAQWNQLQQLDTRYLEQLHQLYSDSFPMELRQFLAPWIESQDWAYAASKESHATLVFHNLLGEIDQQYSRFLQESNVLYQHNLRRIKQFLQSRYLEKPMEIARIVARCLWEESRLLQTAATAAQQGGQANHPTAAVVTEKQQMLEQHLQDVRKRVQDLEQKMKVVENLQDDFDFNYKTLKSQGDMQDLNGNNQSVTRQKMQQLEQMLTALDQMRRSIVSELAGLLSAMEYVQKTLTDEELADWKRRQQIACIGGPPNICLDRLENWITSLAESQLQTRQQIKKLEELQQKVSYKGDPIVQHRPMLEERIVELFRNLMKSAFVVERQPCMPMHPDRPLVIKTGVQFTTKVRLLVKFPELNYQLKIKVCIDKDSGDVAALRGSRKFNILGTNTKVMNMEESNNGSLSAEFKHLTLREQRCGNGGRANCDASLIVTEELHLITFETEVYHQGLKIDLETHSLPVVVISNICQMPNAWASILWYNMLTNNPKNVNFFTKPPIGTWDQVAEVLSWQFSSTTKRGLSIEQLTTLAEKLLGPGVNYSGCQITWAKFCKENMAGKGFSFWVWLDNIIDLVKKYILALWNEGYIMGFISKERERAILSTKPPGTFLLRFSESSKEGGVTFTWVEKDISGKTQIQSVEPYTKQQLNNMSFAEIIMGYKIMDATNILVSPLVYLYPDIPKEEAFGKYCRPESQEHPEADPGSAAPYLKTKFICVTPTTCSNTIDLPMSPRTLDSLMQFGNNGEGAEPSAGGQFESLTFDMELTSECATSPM

With `CC(C)(C)C(=O)SCCOP(=O)(OCCSC(=O)C(C)(C)C)C(F)(F)c1ccc2sc(C(=O)N[C@H]3C[C@H]4C[C@H]4C[C@H]4CC[C@@H](C(=O)N5CCN(C6CCOCC6)CC5)N4C3=O)cc2c1` [Compound 220, S,S′-((((difluoro(2-(((3S,6S,7aR, 8aS,9aR)-5-oxo-3-(4-(tetrahydro-2H-pyran-4-yl)piperazine-1-carbonyl)decahydro-1H-cyclopropa[d]pyrrolo[1,2-a]azocin-6-yl)carbamoyl)benzo[b]thiophen-5-yl)methyl)phosphoryl)bis(oxy))bis(ethane-2,1-diyl)) bis(2,2-dimethyl-propanethioate)], the IC50 is below 100 nM in assay [1] and above 3000 nM in assay [2].
The corresponding values for `CC(C)CC(=O)SCCOP(=O)(OCCSC(=O)CC(C)C)C(F)(F)c1ccc2sc(C(=O)N[C@H]3C[C@H]4C[C@H]4C[C@H]4CC[C@@H](C(=O)N5CC(c6cncnc6)C5)N4C3=O)cc2c1` [Compound 222, S,S′-((((difluoro(2-(((3S,6S,7aR, 8aS,9aR)-5-oxo-3-(3-(pyrimidin-5-yl)azetidine-1-carbonyl)decahydro-1H-cyclopropa[d]pyrrolo[1,2-a]azocin-6-yl)carbamoyl)benzo[b]thiophen-5-yl)methyl)phosphoryl)bis(oxy))bis(ethane-2,1-diyl)) bis(3-methylbutane thioate)] are below 100 nM and above 3000 nM.
The corresponding values for `CC(C)(C)C(=O)SCCOP(=O)(Cc1ccc2sc(C(=O)N[C@H]3C[C@H]4C[C@H]4C[C@H]4CC[C@@H](C(=O)N5CC(c6cccnc6)C5)N4C3=O)cc2c1)OCCSC(=O)C(C)(C)C` [Compound 223, S,S′-(((((2-(((3S,6S,7aR, 8aS,9aR)-5-oxo-3-(3-(pyridin-3-yl)azetidine-1-carbonyl)decahydro-1H-cyclopropa[d]pyrrolo[1,2-a]azocin-6-yl)carbamoyl)benzo[b]thiophen-5-yl)methyl)phosphoryl)bis(oxy))bis(ethane-2,1-diyl)) bis(2,2-dimethyl-propanethioate)] are 100 to 1000 nM and above 3000 nM.
The corresponding values for `CC(C)CC(=O)SCCOP(=O)(OCCSC(=O)CC(C)C)C(F)(F)c1ccc2sc(C(=O)N[C@H]3C[C@H]4C[C@H]4C[C@H]4CC[C@@H](C(=O)N[C@@H]5CCN(c6cccnc6)C5)N4C3=O)cc2c1` [Compound 224, S,S′-((((difluoro(2-(((3S,6S,7aR, 8aS,9aR)-5-oxo-3-(((R)-1-(pyridin-3-yl)pyrrolidin-3-yl)carbamoyl)decahydro-1H-cyclopropa[d]pyrrolo[1,2-a]azocin-6-yl)carbamoyl)benzo[b]thiophen-5-yl)methyl)phosphoryl)bis(oxy))bis(ethane-2,1-diyl)) bis(3-methylbutane thioate)] are below 100 nM and above 3000 nM.
For the compound `CC(C)CC(=O)SCCOP(=O)(OCCSC(=O)CC(C)C)C(F)(F)c1ccc2sc(C(=O)N[C@H]3C[C@H]4C[C@H]4C[C@H]4CC[C@@H](C(=O)N5CC(c6ncccn6)C5)N4C3=O)cc2c1` [Compound 225, S,S′-((((difluoro(2-(((3S,6S,7aR, 8aS,9aR)-5-oxo-3-(3-(pyrimidin-2-yl)azetidine-1-carbonyl)decahydro-1H-cyclopropa[d]pyrrolo[1,2-a]azocin-6-yl)carbamoyl)benzo[b]thiophen-5-yl)methyl)phosphoryl)bis(oxy))bis(ethane-2,1-diyl)) bis(3-methylbutane thioate)], the IC50 is below 100 nM in assay [1] and 1000 to 3000 nM in assay [2].
As to `CC(C)(C)C(=O)SCCOP(=O)(OCCSC(=O)C(C)(C)C)C(F)(F)c1ccc2sc(C(=O)N[C@H]3C[C@@H]4C[C@@H]4C[C@H]4CC[C@@H](C(=O)N5CC(F)(c6ccccc6)C5)N4C3=O)cc2c1` [Compound 228, S,S′-((((difluoro(2-(((3S,6S,7aS, 8aR,9aR)-3-(3-fluoro-3-phenylazetidine-1-carbonyl)-5-oxodecahydro-1H-cyclopropa[d]pyrrolo[1,2-a]azocin-6-yl)carbamoyl)benzo[b]thiophen-5-yl)methyl)phosphoryl)bis(oxy))bis(ethane-2,1-diyl)) bis(2,2-dimethyl-propanethioate)], the IC50 in assay [1] was 100 to 1000 nM; in assay [2], above 3000 nM.
For `CC(C)OC(=O)CNP(=O)(Oc1ccccc1)C(F)(F)c1ccc2sc(C(=O)N[C@H]3C[C@@H]4C[C@@H]4C[C@H]4CC[C@@H](C(=O)N5CC(C(=O)N6CCOCC6)C5)N4C3=O)cc2c1` (stereo partly drawn) [Example 2, isopropyl ((difluoro(2-(((3S,6S,7aS,8aR,9aR)-3-(3-(morpholine-4-carbonyl)azetidine-1-carbonyl)-5-oxodecahydro-1H-cyclopropa[d]pyrrolo[1,2-a]azocin-6-yl)carbamoyl)benzo[b]thiophen-5-yl)methyl)(phenoxy)phosphoryl)glycinate] the same measures were above 3000 nM and above 3000 nM.
The corresponding values for `CCCCC(=O)OCOP(=O)(OCOC(=O)CCCC)C(F)(F)c1ccc2sc(C(=O)N[C@H]3C[C@@H]4C[C@@H]4C[C@H]4CC[C@@H](C(=O)N5CC(C(=O)N6CCOCC6)C5)N4C3=O)cc2c1` [Example 4, (((difluoro(2-(((3S,6S,7aS,8aR,9aR)-3-(3-(morpholine-4-carbonyl)azetidine-1-carbonyl)-5-oxodecahydro-1H-cyclopropa[d]pyrrolo[1,2-a]azocin-6-yl)carbamoyl)benzo[b]thiophen-5-yl)methyl)phosphoryl)bis(oxy))bis(methylene) dipentanoate] are below 100 nM and above 3000 nM.
